≈ marks a conversion by molar mass, not a printed value. Where two headings read alike, the source gives them in different places.
Legend:
Assay in all cases: Agar dilution test on mDixon agar, minimal inhibitory concentration (MIC)
Format in all cases: cell-based
[1] = system: M. restricta; conditions: M. restricta CBS 7877, agar dilution, pH 5.5, 32° C., up to 14 days; for MIC: 336 h, read-out: Minimal inhibitory concentration (MIC)
Method: (§1) The fatty acid esters and their mixtures were tested for growth inhibition against Malassezia. The following reference strains were included:
(§2) Tests were performed on solid media using agar dilution tests. Stock solutions of test substances were prepared in mDixon-Agar (cf. Table 2). Lower test concentrations were obtained by diluting stock solutions with fresh agar.
(§3) Preparation of liquid agar was carried out in temperated water bath. Required amounts of test substances were weighed in 130 ml of Dixon Agar and mixed with fresh Dixon-Agar to reach desired concentrations of test substances. Agar solutions with test substances were then poured into 24 well-plates. The pH value in all assays was maintained at 5.5. Preparation of test substances was done on weight per volume base. All results are expressed in parts per million (1 ppm=0.0001%).
(§4) Briefly, Malassezia strains were cultivated on selective agar for pathogenic fungi (Merck) and overlaid with a thin layer of cold-sterilized olive oil. […] Incubation was carried out at 32° C. over a maximal duration of 14 days with regular inspection and documentation of growth status. Minimal inhibitory concentrations (MICs) were determined as the lowest concentrations of test compound without visible growth. Each experiment was repeated to confirm results.

[2] = system: M. globosa; conditions: agar dilution, pH 5.5, 32° C., up to 14 days; for MIC: Malassezia globosa, read-out: Minimal inhibitory concentration (MIC)
Method: as §1, §2, §3, §4

[3] = system: M. sympodialis; conditions: up to 14 days; for MIC: 336 h, read-out: Minimal inhibitory concentration (MIC)
Method: as §1, §2, §3, §4

[4] = system: M. furfur; conditions: agar dilution, pH 5.5, 32° C., up to 14 days; for MIC: Malassezia furfur, read-out: Minimal inhibitory concentration (MIC)
Method: as §1, §2, §3, §4

[5] = system: M. pachydermatis; conditions: agar dilution, pH 5.5, 32° C., up to 14 days; for MIC: Malassezia pachydermatis, read-out: Minimal inhibitory concentration (MIC)
Method: as §1, §2, §3, §4

[6] = CBS7705, 336 h, M. globosa CBS 7705
[7] = CBS7966, 336 h, M. globosa CBS 7966
[8] = pH 5.5, M. sympodialis ATCC 42132, pH 5.5, 32° C.
[9] = pH 5.5, M. sympodialis CBS 7222, pH 5.5, 32° C.
[10] = pH 5.5, M. sympodialis CBS 7979, pH 5.5, 32° C.
[11] = pH 5.5, M. sympodialis DSM 6171, pH 5.5, 32° C.
[12] = M. sympodialis ATCC 42132, pH 5.5, 32° C.
[13] = M. sympodialis CBS 7222, pH 5.5, 32° C.
[14] = M. sympodialis CBS 7979, pH 5.5, 32° C.
[15] = M. sympodialis DSM 6171, pH 5.5, 32° C.
[16] = CBS1878, 336 h, M. furfur CBS 1878
[17] = CBS7019, 336 h, M. furfur CBS 7019
[18] = CBS1879, 336 h, M. pachydermatis CBS 1879

Compound	MIC [1] [µg/mL]	MIC ([2]; 336 h, M. globosa PM1) [µg/mL]	MIC [2, 6] [µg/mL]	MIC [2, 7] [µg/mL]	MIC [3, 8] [µg/mL]	MIC [3, 9] [µg/mL]	MIC [3, 10] [µg/mL]	MIC [3, 11] [µg/mL]	Minimal inhibitory concentration (MIC) ([2]; M. globosa CBS 7966) [ppm]	Minimal inhibitory concentration (MIC) ([2]; M. globosa PM1) [ppm]	MIC [4, 16] [µg/mL]	MIC [4, 17] [µg/mL]	MIC ([5]; 336 h, M. pachydermatis 1892) [µg/mL]	MIC [5, 18] [µg/mL]	further results
CCCCCCCCC(O)CO (stereo not shown) [1,2-Decandiol]	1000 (≈ 5.74 mM)	8000 (≈ 45.9 mM)	8000 (≈ 45.9 mM)	8000 (≈ 45.9 mM)	1000 (≈ 5.74 mM)	1000 (≈ 5.74 mM)	2000 (≈ 11.5 mM)	4000 (≈ 23 mM)							
CCCCCCCCCCC(O)CO (stereo not shown) [1,2-Dodecandiol]	8000 (≈ 39.5 mM)	40000 (≈ 198 mM)	40000 (≈ 198 mM)	40000 (≈ 198 mM)	2000 (≈ 9.88 mM)	4000 (≈ 19.8 mM)	4000 (≈ 19.8 mM)	4000 (≈ 19.8 mM)							
CCCCC(O)CO (stereo not shown) [1,2-Hexandiol]	5000 (≈ 42.3 mM)	5000 (≈ 42.3 mM)	10000 (≈ 84.6 mM)	5000 (≈ 42.3 mM)	10000 (≈ 84.6 mM)	10000 (≈ 84.6 mM)	10000 (≈ 84.6 mM)	10000 (≈ 84.6 mM)							
CCCCCCC(O)CO (stereo not shown) [1,2-Octandiol]	1000 (≈ 6.84 mM)	2000 (≈ 13.7 mM)	4000 (≈ 27.4 mM)	2000 (≈ 13.7 mM)	2000 (≈ 13.7 mM)	2000 (≈ 13.7 mM)	2000 (≈ 13.7 mM)	2000 (≈ 13.7 mM)							
CCCC(O)CO (stereo not shown) [1,2-Pentandiol]	10000 (≈ 96 mM)	10000 (≈ 96 mM)	20000 (≈ 192 mM)	10000 (≈ 96 mM)	20000 (≈ 192 mM)	20000 (≈ 192 mM)	20000 (≈ 192 mM)	20000 (≈ 192 mM)							
OCCCO [1,3-Propandiol]									40000	33000					Minimal inhibitory concentration (MIC) [1]: 33000 ppm; Minimal inhibitory concentration (MIC) ([2]; M. globosa CBS 7705): 80000 ppm; Minimal inhibitory concentration (MIC) [3, 12]: 40000 ppm; Minimal inhibitory concentration (MIC) [3, 13]: 33000 ppm; Minimal inhibitory concentration (MIC) [3, 14]: 80000 ppm; Minimal inhibitory concentration (MIC) [3, 15]: 80000 ppm
CCCCCCCC(=O)OCC(CO)OC(=O)CCCCCCC (stereo not shown) [3-Hydroxypropyl dicaprylate]									8000	8000					Minimal inhibitory concentration (MIC) ([4]; M. furfur CBS 1878): >20000 ppm; Minimal inhibitory concentration (MIC) ([4]; M. furfur CBS 7019): 20000 ppm; Minimal inhibitory concentration (MIC) [3, 12]: 4000 ppm; Minimal inhibitory concentration (MIC) [3, 13]: 20000 ppm; Minimal inhibitory concentration (MIC) [3, 14]: 20000 ppm; Minimal inhibitory concentration (MIC) [3, 15]: 20000 ppm
C=CCCCCCCCCC(=O)OCC(CO)OC(=O)CCCCCCCCC=C (stereo not shown) [3-Hydroxypropyl diundecylenoate]									10000	10000					Minimal inhibitory concentration (MIC) ([4]; M. furfur CBS 1878): >20000 ppm; Minimal inhibitory concentration (MIC) ([4]; M. furfur CBS 7019): >20000 ppm
CCCCCCCC(=O)O [Caprylic acid, caprylic acid]	200 (≈ 1.39 mM)	500 (≈ 3.47 mM)		1000 (≈ 6.93 mM)	330 (≈ 2.29 mM)	330 (≈ 2.29 mM)	1000 (≈ 6.93 mM)	500 (≈ 3.47 mM)			1000 (≈ 6.93 mM)	2000 (≈ 13.9 mM)	200 (≈ 1.39 mM)	100 (≈ 0.693 mM)	
CCCCCCCC(=O)OCC [Ethyl caprylate]	4000 (≈ 23.2 mM)	1000 (≈ 5.8 mM)		1000 (≈ 5.8 mM)	1000 (≈ 5.8 mM)	1000 (≈ 5.8 mM)	1000 (≈ 5.8 mM)	1000 (≈ 5.8 mM)			> 20000	10000 (≈ 58 mM)	1000 (≈ 5.8 mM)	< 500	
C=CCCCCCCCCC(=O)OCC [Ethyl undecylenoate]	1000 (≈ 4.71 mM)	8000 (≈ 37.7 mM)	4000 (≈ 18.8 mM)	10000 (≈ 47.1 mM)	200 (≈ 0.942 mM)	200 (≈ 0.942 mM)	200 (≈ 0.942 mM)	200 (≈ 0.942 mM)			20000 (≈ 94.2 mM)	> 20000	500 (≈ 2.35 mM)	2000 (≈ 9.42 mM)	
CCCCCCCC(=O)OCC(O)CO (stereo not shown) [Glyceryl monocaprylate]	330 (≈ 1.51 mM)	500 to 1000 (≈ 2.29 to 4.58 mM)	1000 (≈ 4.58 mM)	1000 (≈ 4.58 mM)	1000 (≈ 4.58 mM)	1000 (≈ 4.58 mM)	1000 (≈ 4.58 mM)	2000 (≈ 9.16 mM)			4000 (≈ 18.3 mM)	4000 (≈ 18.3 mM)	500 (≈ 2.29 mM)	330 (≈ 1.51 mM)	
C=CCCCCCCCCC(=O)OCC(O)CO (stereo not shown) [Glyceryl monoundecylenoate]	1000 (≈ 3.87 mM)	2000 (≈ 7.74 mM)	1000 (≈ 3.87 mM)	2000 (≈ 7.74 mM)	500 (≈ 1.94 mM)	500 (≈ 1.94 mM)	500 (≈ 1.94 mM)	200 (≈ 0.774 mM)			8000 (≈ 31 mM)	8000 (≈ 31 mM)	4000 (≈ 15.5 mM)	8000 (≈ 31 mM)	
C=CCCCCCCCCC(=O)OCC(COC(=O)CCCCCCCCC=C)OC(=O)CCCCCCCCC=C [Glyceryl triundecylenoate]									>20000	8000					Minimal inhibitory concentration (MIC) ([4]; M. furfur CBS 1878): 10000 ppm; Minimal inhibitory concentration (MIC) ([4]; M. furfur CBS 7019): >20000 ppm; Minimal inhibitory concentration (MIC) [1]: 4000 ppm; Minimal inhibitory concentration (MIC) ([5]; M. pachydermatis 1892): 4000 ppm; Minimal inhibitory concentration (MIC) ([5]; M. pachydermatis CBS 1879): 4000 ppm; Minimal inhibitory concentration (MIC) ([2]; M. globosa CBS 7705): 8000 ppm
PEG-9-undecylenoate									10000	8000					Minimal inhibitory concentration (MIC) ([4]; M. furfur CBS 1878): 20000 ppm; Minimal inhibitory concentration (MIC) ([4]; M. furfur CBS 7019): >20000 ppm; Minimal inhibitory concentration (MIC) [1]: 4000 ppm; Minimal inhibitory concentration (MIC) ([5]; M. pachydermatis 1892): 8000 ppm; Minimal inhibitory concentration (MIC) ([5]; M. pachydermatis CBS 1879): 8000 ppm

Reference: US12274775B2, “Fatty acid esters as anti-Malassezia agents” (SYMRISE AG, priority 2019, dated 2025)
